# In patent US7118895B2, “Process for producing aglycon by using diglycosidase and flavor-improved food containing the aglycon and converting agent to be used in the process” (Amano Enzyme Inc., priority 2000, dated 2006):
# Test system: Crude diglycosidase
# Experiment: Examination of temperature in the conversion into isoflavone aglycons by diglycosidase using soybean materials
# Format: biochemical, Penicillium multicolor IAM7153
# Design: Decomposition efficiency of glycitin family in roasted soy flour / Decomposition efficiency of daidzin family in roasted soy flour / Decomposition efficiency of genistin family in soymilk / Decomposition efficiency of daidzin family in soymilk / Decomposition efficiency of glycitin family in defatted soybean / Decomposition efficiency of daidzin family in defatted soybean: concentration or dose not given beside the values
# Method in brief: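 Soybean materials (50 mg) suspended in 20 mM acetate buffer pH 4.0 reacted with crude diglycosidase diluted to 1.88 AU/mL at 80, 65, 55, 45, 37 or 30° C. Reactions stopped with ethanol at 0, 1, 3 and 6 h; isoflavone glycosides and aglycons in supernatant detected by HPLC.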
# [1] = 30° C., heat treatment of enzyme no, reaction time 0 h
# [2] = 30° C., heat treatment of enzyme no, reaction time 1 h
# [3] = 30° C., heat treatment of enzyme no, reaction time 3 h
# [4] = 30° C., heat treatment of enzyme no, reaction time 6 h
# [5] = 30° C., heat treatment of enzyme yes, reaction time 6 h
# [6] = 45° C., heat treatment of enzyme no, reaction time 0 h
# [7] = 45° C., heat treatment of enzyme no, reaction time 1 h
# [8] = 45° C., heat treatment of enzyme no, reaction time 3 h
# [9] = 45° C., heat treatment of enzyme no, reaction time 6 h
# [10] = 45° C., heat treatment of enzyme yes, reaction time 6 h
# [11] = 45 °C, heat treatment of enzyme: no, 0 h
# [12] = 45 °C, heat treatment of enzyme: no, 1 h
# [13] = 45 °C, heat treatment of enzyme: no, 3 h
# [14] = 45 °C, heat treatment of enzyme: no, 6 h
# [15] = 45 °C, heat treatment of enzyme: yes, 6 h
# [16] = 55° C., heat treatment of enzyme no, reaction time 0 h
# [17] = 55° C., heat treatment of enzyme no, reaction time 1 h
# [18] = 55° C., heat treatment of enzyme no, reaction time 3 h
# [19] = 55° C., heat treatment of enzyme no, reaction time 6 h
# [20] = 55° C., heat treatment of enzyme yes, reaction time 6 h
# [21] = 55 °C, heat treatment of enzyme: no, 0 h
# [22] = 55 °C, heat treatment of enzyme: no, 1 h
# [23] = 55 °C, heat treatment of enzyme: no, 3 h
# [24] = 55 °C, heat treatment of enzyme: no, 6 h
# [25] = 55 °C, heat treatment of enzyme: yes, 6 h
# [26] = 65° C., heat treatment of enzyme no, reaction time 0 h
# [27] = 65° C., heat treatment of enzyme no, reaction time 1 h
# [28] = 65° C., heat treatment of enzyme no, reaction time 3 h
# [29] = 65° C., heat treatment of enzyme no, reaction time 6 h
# [30] = 65° C., heat treatment of enzyme yes, reaction time 6 h
# [31] = 65 °C, heat treatment of enzyme: no, 0 h
# [32] = 65 °C, heat treatment of enzyme: no, 1 h
# [33] = 65 °C, heat treatment of enzyme: no, 3 h
# [34] = 65 °C, heat treatment of enzyme: no, 6 h
# [35] = 65 °C, heat treatment of enzyme: yes, 6 h
# [36] = 80° C., heat treatment of enzyme no, reaction time 0 h
# [37] = 80° C., heat treatment of enzyme no, reaction time 1 h
# [38] = 80° C., heat treatment of enzyme no, reaction time 3 h
# [39] = 80° C., heat treatment of enzyme no, reaction time 6 h
# [40] = 80° C., heat treatment of enzyme yes, reaction time 6 h
# [41] = 80 °C, heat treatment of enzyme: no, 0 h
# [42] = 80 °C, heat treatment of enzyme: no, 1 h
# [43] = 80 °C, heat treatment of enzyme: no, 3 h
# [44] = 80 °C, heat treatment of enzyme: no, 6 h
# [45] = 80 °C, heat treatment of enzyme: yes, 6 h
compound,measurement,setting,value
"CC(=O)OC[C@H]1O[C@@H](Oc2ccc3c(=O)c(-c4ccc(O)cc4)coc3c2)[C@H](O)[C@@H](O)[C@@H]1O [acetyldaidzin, 6″-O-acetyldaidzin]",Decomposition efficiency of daidzin family in concentrated soybean protein,[1],44.6%
same,Decomposition efficiency of daidzin family in defatted soybean,[1],not detected
same,Decomposition efficiency of daidzin family in concentrated soybean protein,[2],44.4%
same,Decomposition efficiency of daidzin family in defatted soybean,[2],not detected
same,Decomposition efficiency of daidzin family in concentrated soybean protein,[3],43.9%
same,Decomposition efficiency of daidzin family in defatted soybean,[3],not detected
same,Decomposition efficiency of daidzin family in concentrated soybean protein,[4],43.5%
same,Decomposition efficiency of daidzin family in defatted soybean,[4],not detected
same,Decomposition efficiency of daidzin family in concentrated soybean protein,[5],42.3%
same,Decomposition efficiency of daidzin family in defatted soybean,[5],not detected
same,Decomposition efficiency of daidzin family in soymilk,"30 °C, heat treatment of enzyme: no, 0 h",not detected
same,Decomposition efficiency of daidzin family in soymilk,"30 °C, heat treatment of enzyme: no, 1 h",not detected
same,Decomposition efficiency of daidzin family in soymilk,"30 °C, heat treatment of enzyme: no, 3 h",not detected
same,Decomposition efficiency of daidzin family in soymilk,"30 °C, heat treatment of enzyme: no, 6 h",not detected
same,Decomposition efficiency of daidzin family in soymilk,"30 °C, heat treatment of enzyme: yes, 6 h",not detected
same,Decomposition efficiency of daidzin family in roasted soy flour,"35 °C, heat treatment of enzyme: no, 0 h",47.8%
same,Decomposition efficiency of daidzin family in roasted soy flour,"35 °C, heat treatment of enzyme: no, 1 h",46.9%
same,Decomposition efficiency of daidzin family in roasted soy flour,"35 °C, heat treatment of enzyme: no, 3 h",45.3%
same,Decomposition efficiency of daidzin family in roasted soy flour,"35 °C, heat treatment of enzyme: no, 6 h",39.6%
same,Decomposition efficiency of daidzin family in roasted soy flour,"35 °C, heat treatment of enzyme: yes, 6 h",43.8%
same,Decomposition efficiency of daidzin family in concentrated soybean protein,[6],44.5%
same,Decomposition efficiency of daidzin family in defatted soybean,[6],not detected
same,Decomposition efficiency of daidzin family in concentrated soybean protein,[7],44.1%
same,Decomposition efficiency of daidzin family in defatted soybean,[7],not detected
same,Decomposition efficiency of daidzin family in concentrated soybean protein,[8],41.5%
same,Decomposition efficiency of daidzin family in defatted soybean,[8],not detected
same,Decomposition efficiency of daidzin family in concentrated soybean protein,[9],42.9%
same,Decomposition efficiency of daidzin family in defatted soybean,[9],not detected
same,Decomposition efficiency of daidzin family in concentrated soybean protein,[10],0.0%
same,Decomposition efficiency of daidzin family in defatted soybean,[10],not detected
same,Decomposition efficiency of daidzin family in roasted soy flour,[11],47.7%
same,Decomposition efficiency of daidzin family in soymilk,[11],not detected
same,Decomposition efficiency of daidzin family in roasted soy flour,[12],42.9%
same,Decomposition efficiency of daidzin family in soymilk,[12],not detected
same,Decomposition efficiency of daidzin family in roasted soy flour,[13],37.9%
same,Decomposition efficiency of daidzin family in soymilk,[13],not detected
same,Decomposition efficiency of daidzin family in roasted soy flour,[14],28.5%
same,Decomposition efficiency of daidzin family in soymilk,[14],not detected
same,Decomposition efficiency of daidzin family in roasted soy flour,[15],42.5%
same,Decomposition efficiency of daidzin family in soymilk,[15],not detected
same,Decomposition efficiency of daidzin family in concentrated soybean protein,[16],44.5%
same,Decomposition efficiency of daidzin family in defatted soybean,[16],not detected
same,Decomposition efficiency of daidzin family in concentrated soybean protein,[17],44.0%
same,Decomposition efficiency of daidzin family in defatted soybean,[17],not detected
same,Decomposition efficiency of daidzin family in concentrated soybean protein,[18],40.6%
same,Decomposition efficiency of daidzin family in defatted soybean,[18],not detected
same,Decomposition efficiency of daidzin family in concentrated soybean protein,[19],37.7%
same,Decomposition efficiency of daidzin family in defatted soybean,[19],not detected
same,Decomposition efficiency of daidzin family in concentrated soybean protein,[20],42.3%
same,Decomposition efficiency of daidzin family in defatted soybean,[20],not detected
same,Decomposition efficiency of daidzin family in roasted soy flour,[21],47.5%
same,Decomposition efficiency of daidzin family in soymilk,[21],not detected
same,Decomposition efficiency of daidzin family in roasted soy flour,[22],42.8%
same,Decomposition efficiency of daidzin family in soymilk,[22],not detected
same,Decomposition efficiency of daidzin family in roasted soy flour,[23],32.5%
same,Decomposition efficiency of daidzin family in soymilk,[23],not detected
same,Decomposition efficiency of daidzin family in roasted soy flour,[24],26.7%
same,Decomposition efficiency of daidzin family in soymilk,[24],not detected
same,Decomposition efficiency of daidzin family in roasted soy flour,[25],43.6%
same,Decomposition efficiency of daidzin family in soymilk,[25],not detected
same,Decomposition efficiency of daidzin family in concentrated soybean protein,[26],44.6%
same,Decomposition efficiency of daidzin family in defatted soybean,[26],not detected
same,Decomposition efficiency of daidzin family in concentrated soybean protein,[27],44.3%
same,Decomposition efficiency of daidzin family in defatted soybean,[27],not detected
same,Decomposition efficiency of daidzin family in concentrated soybean protein,[28],42.9%
same,Decomposition efficiency of daidzin family in defatted soybean,[28],not detected
same,Decomposition efficiency of daidzin family in concentrated soybean protein,[29],41.6%
same,Decomposition efficiency of daidzin family in defatted soybean,[29],not detected
same,Decomposition efficiency of daidzin family in concentrated soybean protein,[30],43.6%
same,Decomposition efficiency of daidzin family in defatted soybean,[30],not detected
same,Decomposition efficiency of daidzin family in roasted soy flour,[31],47.8%
same,Decomposition efficiency of daidzin family in soymilk,[31],not detected
same,Decomposition efficiency of daidzin family in roasted soy flour,[32],43.7%
same,Decomposition efficiency of daidzin family in soymilk,[32],not detected
same,Decomposition efficiency of daidzin family in roasted soy flour,[33],40.2%
same,Decomposition efficiency of daidzin family in soymilk,[33],not detected
same,Decomposition efficiency of daidzin family in roasted soy flour,[34],37.8%
same,Decomposition efficiency of daidzin family in soymilk,[34],not detected
same,Decomposition efficiency of daidzin family in roasted soy flour,[35],46.1%
same,Decomposition efficiency of daidzin family in soymilk,[35],not detected
same,Decomposition efficiency of daidzin family in concentrated soybean protein,[36],44.5%
same,Decomposition efficiency of daidzin family in defatted soybean,[36],not detected
same,Decomposition efficiency of daidzin family in concentrated soybean protein,[37],45.5%
same,Decomposition efficiency of daidzin family in defatted soybean,[37],not detected
same,Decomposition efficiency of daidzin family in concentrated soybean protein,[38],44.7%
same,Decomposition efficiency of daidzin family in defatted soybean,[38],not detected
same,Decomposition efficiency of daidzin family in concentrated soybean protein,[39],43.8%
same,Decomposition efficiency of daidzin family in defatted soybean,[39],not detected
same,Decomposition efficiency of daidzin family in concentrated soybean protein,[40],42.3%
same,Decomposition efficiency of daidzin family in defatted soybean,[40],not detected
same,Decomposition efficiency of daidzin family in roasted soy flour,[41],47.7%
same,Decomposition efficiency of daidzin family in soymilk,[41],not detected
same,Decomposition efficiency of daidzin family in roasted soy flour,[42],49.1%
same,Decomposition efficiency of daidzin family in soymilk,[42],not detected
same,Decomposition efficiency of daidzin family in roasted soy flour,[43],47.9%
same,Decomposition efficiency of daidzin family in soymilk,[43],not detected
same,Decomposition efficiency of daidzin family in roasted soy flour,[44],46.7%
same,Decomposition efficiency of daidzin family in soymilk,[44],not detected
same,Decomposition efficiency of daidzin family in roasted soy flour,[45],45.0%
same,Decomposition efficiency of daidzin family in soymilk,[45],not detected
